Structures can show the parent of a compound that is named as a salt. Where two headings read alike, the source gives them in different places.
Tests used:
Type in all cases: cell-based
S. marcescens [1] = assay: MIC against 18 strains of S. marcescens (Table 3); details: Serratia marcescens, read-out: Geometric Means of MIC's
Text: | Geometric Means of MIC's Against 18 Strains |of S. marcescens

bacteria = assay: In vitro antibacterial potency; details: compared with corresponding compound lacking 2-methyl group (BB-S515)
E. coli, Cephalosporin-R = assay: MIC on Mueller-Hinton agar (Table 2); details: Escherichia coli, 1 strain, read-out: Geometric Means of MIC's
Text: (§1) Geometric Means of MIC's Against 3 Strains
(§2) of S. aureus and 27 Strains of Gram-negative Bacteria
(§3) (mcg./ml., Mueller-Hinton Agar)

[2] = tested on: Indole (+) Proteus, Cephalosporin-R; assay: MIC on Mueller-Hinton agar (Table 2); details: 2 strains, read-out: Geometric Means of MIC's
Text: as §1, §2, §3

Shigella, Salmonella = assay: MIC on Mueller-Hinton agar (Table 2); details: 5 strains, read-out: Geometric Means of MIC's
Text: as §1, §2, §3

P. aeruginosa = assay: MIC on Mueller-Hinton agar (Table 2); details: Pseudomonas aeruginosa, 2 strains, read-out: Geometric Means of MIC's
Text: as §1, §2, §3

S. marcescens [3] = assay: MIC on Mueller-Hinton agar (Table 2); details: Serratia marcescens, 1 strain, read-out: Geometric Means of MIC's
Text: as §1, §2, §3

E. coli [4] = assay: MIC on Mueller-Hinton agar (Table 2); details: Escherichia coli, 6 strains, read-out: Geometric Means of MIC's
Text: as §1, §2, §3

K. pneumoniae = assay: MIC on Mueller-Hinton agar (Table 2); details: Klebsiella pneumoniae, 4 strains, read-out: Geometric Means of MIC's
Text: as §1, §2, §3

S. aureus, Penicillin-R = assay: MIC on Mueller-Hinton agar (Table 2); details: Staphylococcus aureus, 2 strains, read-out: Geometric Means of MIC's
Text: as §1, §2, §3

E. cloacae = assay: MIC on Mueller-Hinton agar (Table 2); details: Enterobacter cloacae, 1 strain, read-out: Geometric Means of MIC's
Text: as §1, §2, §3

Indole (+) Proteus = assay: MIC on Mueller-Hinton agar (Table 2); details: 3 strains, read-out: Geometric Means of MIC's
Text: as §1, §2, §3

Indole (-) Proteus = assay: MIC on Mueller-Hinton agar (Table 2); details: 2 strains, read-out: Geometric Means of MIC's
Text: as §1, §2, §3

S. aureus = assay: In vitro antibacterial activity, Mueller-Hinton agar serial dilution (Table 1); details: Staphylococcus aureus, 3 strains, serial dilution method, read-out: Geometric Mean of MIC
Text: (§4) In vitro Activity Using Mueller-Hinton Agar
(§5) By the Serial Dilution Method

Kl. pneumoniae = assay: as above; details: Klebsiella pneumoniae, 4 strains, serial dilution method, read-out: Geometric Mean of MIC
Text: as §4, §5

N. gonorrhoeae = assay: as above; details: Neisseria gonorrhoeae, 5 strains, serial dilution method, read-out: Geometric Mean of MIC
Text: as §4, §5

Proteus = assay: as above; details: read-out: Geometric Mean of MIC
Text: as §4, §5

E. coli [5] = assay: as above; details: Escherichia coli, 7 strains, serial dilution method, read-out: Geometric Mean of MIC
Text: as §4, §5

N. meningitidis = assay: as above; details: Neisseria meningitidis, 5 strains, serial dilution method, read-out: Geometric Mean of MIC
Text: as §4, §5

S. viridans = assay: as above; details: Streptococcus viridans, 5 strains, serial dilution method, read-out: Geometric Mean of MIC
Text: as §4, §5

[6] = tested on: Shig.(3), Serr.(1) Enterab.(1), Sal.(2) B. -B. (1); assay: as above; details: pooled Shig.(3), serial dilution method, read-out: Geometric Mean of MIC
Text: as §4, §5

H. influenzae = assay: as above; details: Haemophilus influenzae, 7 strains, serial dilution method, read-out: Geometric Mean of MIC
Text: as §4, §5

D. pneumoniae = assay: as above; details: Streptococcus pneumoniae, 5 strains, serial dilution method, read-out: Geometric Mean of MIC
Text: as §4, §5

S. pyogenes = assay: as above; details: Streptococcus pyogenes, read-out: Geometric Mean of MIC
Text: as §4, §5

With `CO/N=C(\C(=O)N[C@@H]1C(=O)N2C(C(=O)O)=C(CSc3ccc4nn(C)c(=O)n4n3)CS[C@H]12)c1ccco1` [BB-S510, 7-[(2Z)-2-methoxyimino(fur-2-yl)acetamido]-3-(2-methyl-2,3-dihydro-s-triazolo[4,3-b]pyridazin-3-on-6-ylthiomethyl)-3-cephem-4-carboxylic acid sodium salt] the MIC (S. marcescens [1]) was 7.9 µg/mL, the “in vitro antibacterial potency” value (bacteria) was “considerably superior” and the MIC (E. coli, Cephalosporin-R) was 3.1 µg/mL. For the same compound, the MIC [2] was 6.3 µg/mL, the MIC (Shigella, Salmonella) was 0.5 µg/mL and the MIC (P. aeruginosa) was over 100 µg/mL. It also gave an MIC (S. marcescens [3]) of 6.3 µg/mL, an MIC (E. coli [4]) of 0.1 µg/mL and an MIC (K. pneumoniae) of 2.6 µg/mL. It also gave an MIC (S. aureus, Penicillin-R) of 0.1 µg/mL, an MIC (E. cloacae) of 3.1 µg/mL and an MIC (Indole (+) Proteus) of 0.2 µg/mL. It also gave an MIC (Indole (-) Proteus) of 1.1 µg/mL, an MIC (S. aureus) of 0.62 µg/mL and an MIC (Kl. pneumoniae) of 6.3 µg/mL. It also gave an MIC (N. gonorrhoeae) of 0.26 µg/mL, an MIC (Proteus; 6 strains, Mueller-Hinton agar, serial dilution method) of 1.39 µg/mL and an MIC (E. coli [5]) of 2.11 µg/mL. It also gave an MIC (N. meningitidis) of 1.03 µg/mL, an MIC (S. viridans) of 0.13 µg/mL and an MIC [6] of 6.26 µg/mL. It also gave an MIC (H. influenzae) of 0.35 µg/mL, an MIC (D. pneumoniae) of 0.021 µg/mL and an MIC (S. pyogenes; 5 strains, Mueller-Hinton agar, serial dilution method) of 0.0125 µg/mL.
`CO/N=C(\C(=O)N[C@@H]1C(=O)N2C(C(=O)O)=C(CSc3ccc4n[nH]c(=O)n4n3)CS[C@H]12)c1ccco1` [BB-S515, 7-[(2Z)-2-methoxyimino(fur-2-yl)acetamido]-3-(2,3-dihydro-s-triazolo[4,3-b]pyridazin-3-on-6-ylthiomethyl)-3-cephem-4-carboxylic acid sodium salt, reference compound] was tested, and the MIC (S. aureus) was 2.48 µg/mL, the MIC (Kl. pneumoniae) was 3.1 µg/mL and the MIC (N. gonorrhoeae) was 2.07 µg/mL. For the same compound, the MIC (Proteus) was 1.11 µg/mL, the MIC (E. coli [5]) was 2.33 µg/mL and the MIC (N. meningitidis) was 5.45 µg/mL. For the same compound, the MIC (S. viridans) was 0.59 µg/mL, the MIC [6] was 5.26 µg/mL and the MIC (H. influenzae) was 2.11 µg/mL. It also gave an MIC (D. pneumoniae) of 0.1 µg/mL and an MIC (S. pyogenes) of 0.032 µg/mL.

— US4104469A, “7-(Syn-α-alkoxy-iminofuryl)acetamido-3-(2-methyl-2,3-dihydro-s-t riazolo[4,3-b]pyridazin-3-on-6-ylthiomethyl)-3-cephem-4-carboxylic acids” (Bristol-Myers Company, priority 1977, dated 1978)
